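Each compound was tested at five concentrations against cells in 96-well plates for 48 hours. GI50 is the concentration that inhibits growth by half.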 Activity calls are given as the source filed them. No stated cut-off is given here; in the data, active = GI50 up to about 1.1 µM and inactive = higher.
Key:
Assay in all cases: inhibition of tumour cell growth, NCI panel, 48 h
SW-620 = tested on: SW-620
SK-OV-3 = tested on: SK-OV-3
HOP-62 = tested on: HOP-62
OVCAR-3 = tested on: OVCAR-3
M14 = tested on: M14
UO-31 = tested on: UO-31
HT-29 = tested on: HT-29
UACC-257 = tested on: UACC-257
NCI-H226 = tested on: NCI-H226
Malme-3M = tested on: Malme-3M
KM12 = tested on: KM12
RXF 393 = tested on: RXF 393
IGROV-1 = tested on: IGROV-1
SK-MEL-28 = tested on: SK-MEL-28
OVCAR-5 = tested on: OVCAR-5
SR = tested on: SR
CCRF-CEM = tested on: CCRF-CEM
NCI-H522 = tested on: NCI-H522
SK-MEL-2 = tested on: SK-MEL-2
NCI/ADR-RES = tested on: NCI/ADR-RES

| SMILES | GI50 (SW-620) | GI50 (SK-OV-3) | GI50 (HOP-62) | GI50 (OVCAR-3) | GI50 (M14) | GI50 (UO-31) | GI50 (HT-29) | GI50 (UACC-257) | GI50 (NCI-H226) | GI50 (Malme-3M) | GI50 (KM12) | GI50 (RXF 393) | GI50 (IGROV-1) | GI50 (SK-MEL-28) | GI50 (OVCAR-5) | GI50 (SR) | GI50 (CCRF-CEM) | GI50 (NCI-H522) | GI50 (SK-MEL-2) | GI50 (NCI/ADR-RES) |
| --- | --- | --- | --- | --- | --- | --- | --- | --- | --- | --- | --- | --- | --- | --- | --- | --- | --- | --- | --- | --- |
| CCCSc1ccc2[nH]c(N3C(=O)/C(=C/c4cc(OC)c(OC)c(OC)c4)N=C3c3ccccc3)cc2c1 | 10.9 µM (inactive) | 1.6 µM (inactive) | 1.39 µM (inactive) | 9.12 µM (inactive) | 10.4 µM (inactive) | 15.1 µM (inactive) | 7.82 µM (inactive) | 13.8 µM (inactive) | > 37.5 µM (inactive) | 13.9 µM (inactive) | 1.65 µM (inactive) | 7.73 µM (inactive) | 9.38 µM (inactive) | 12.9 µM (inactive) | 17.7 µM (inactive) | 1.66 µM (inactive) | 7.94 µM (inactive) | 8.97 µM (inactive) | 18.4 µM (inactive) | 11.6 µM (inactive) |
| CCCn1c(CN(Cc2nc3ccccc3n2CCC)Cc2nc3ccccc3n2CCC)nc2ccccc21 | 5.11 µM (inactive) | 41.5 µM (inactive) | 10.8 µM (inactive) | 3.37 µM (inactive) | 2.46 µM (inactive) | 2.21 µM (inactive) | 2.25 µM (inactive) | 7.36 µM (inactive) | 6.47 µM (inactive) | 4.94 µM (inactive) | 4.68 µM (inactive) | 0.249 µM (active) | 1.94 µM (inactive) | 10.7 µM (inactive) | 6.07 µM (inactive) | 2.58 µM (inactive) | 2.76 µM (inactive) | 4.63 µM (inactive) | 5.69 µM (inactive) | 8.69 µM (inactive) |
| O=S1(=O)CS(=O)(=O)OCCCO1 | > 100 µM (inactive) | > 100 µM (inactive) | > 100 µM (inactive) | > 100 µM (inactive) | > 100 µM (inactive) | > 100 µM (inactive) | > 100 µM (inactive) | > 100 µM (inactive) | > 100 µM (inactive) | > 100 µM (inactive) | > 100 µM (inactive) | > 100 µM (inactive) | > 100 µM (inactive) | > 100 µM (inactive) | > 100 µM (inactive) | 41.2 µM (inactive) | 63.8 µM (inactive) | > 100 µM (inactive) | > 100 µM (inactive) | > 100 µM (inactive) |

— ChEMBL document CHEMBL1201862, “PubChem BioAssay data set” (2004)
